Results on 12 compounds are retold here after patent US10968203B2, “Pyrimidinyl-pyridyloxy-naphthyl compounds and methods of treating IRE1-related diseases and disorders” (Genentech, Inc., priority 2017, dated 2021).

The assay concerns XBP1s-luc 293 LUC. Nature of the assay: cellular PD assay, XBP1s-LUC reporter (Example 903). In kind it is cell-based. The note with it: read-out: XBP1s-luc 293 LUC (IC50). The method in brief: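 A luciferase fusion, in frame and expressed only when the XBP1 transcript is spliced, served as the readout of cellular IRE1α activity in an XBP1-Luc reporter line.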

The structures appear in SMILES notation. Structures can show the parent of a compound that is named as a salt. Where two headings read alike, the source gives them in different places.

For the compound `Cc1ccc2c(NCCC(C)O)cccc2c1Oc1ncccc1-c1ccnc(N[C@H]2CCCNC2)n1` (mixture of isomers) [Example 390, 4-((6-Methyl-5-((3-(2-((S)-piperidin-3-ylamino)pyrimidin-4-yl)pyridin-2-yl)oxy)naphthalen-1-yl)amino)butan-2-ol], where the note is “Table 1”, the IC50 is 143 nM. The same measure, in the same setting: the value for `Cc1ccc2c(NC(=O)[C@@H]3CC34CCCC4)cccc2c1Oc1ncccc1-c1ccnc(N[C@H]2CCCNC2)n1` (single isomer, unassigned) [Example 254] was 69 nM; that for `Cc1ccc2c(NCC[C@@H]3CC3(F)F)cccc2c1Oc1ncccc1-c1ccnc(N[C@H]2CCCNC2)n1` (single isomer, unassigned) [Example 291] was 361 nM; that for `Cc1ccc2c(NC(=O)CC3(C)CCCC3)cccc2c1Oc1ncccc1-c1ccnc(N[C@H]2CCCNC2)n1` [Example 267, (S)—N-(6-Methyl-5-((3-(2-(piperidin-3-ylamino)pyrimidin-4-yl)pyridin-2-yl)oxy)naphthalen-1-yl)-2-(1-methylcyclopentyl)acetamide] was 162 nM.

For `Cc1ccc2c(NS(=O)(=O)CC3CCOCC3)cccc2c1Oc1ncccc1-c1ccnc(N[C@H]2CCCNC2)n1` [Example 133, (S)—N-(6-Methyl-5-((3-(2-(piperidin-3-ylamino)pyrimidin-4-yl)pyridin-2-yl)oxy)naphthalen-1-yl)-1-(tetrahydro-2H-pyran-4-yl)methanesulfonamide hydrochloride], the concentration for half-maximal inhibition (IC50) (Table 1) is 158 nM.

As for `Cc1ccn(-c2cccc3c(Oc4ncccc4-c4ccnc(N[C@H]5CCCNC5)n4)c(C)ccc23)n1` [Example 250, (S)-4-(2-((2-methyl-5-(3-methyl-1H-pyrazol-1-yl)naphthalen-1-yl)oxy)pyridin-3-yl)-N-(piperidin-3-yl)pyrimidin-2-amine], the IC50 (Table 1) worked out at 258 nM. Take `Cc1ccc2c(NS(=O)(=O)C3CCCCC3)cccc2c1Oc1ncccc1-c1ccnc(N[C@H]2CCCNC2)n1` [Example 140, (S)—N-(6-Methyl-5-((3-(2-(piperidin-3-ylamino)pyrimidin-4-yl)pyridin-2-yl)oxy)naphthalen-1-yl)cyclohexanesulfonamide]: the IC50 (Table 1) stood at 177 nM.

Take `Cc1ccc2c(NS(=O)(=O)Cc3ccccc3)cccc2c1Oc1ncccc1-c1ccnc(NC2CNCCC2F)n1` (stereo not drawn) [Example 162, N-(5-((3-(2-((4-Fluoropiperidin-3-yl)amino)pyrimidin-4-yl)pyridin-2-yl)oxy)-6-methylnaphthalen-1-yl)-1-phenylmethanesulfonamide]: the half-maximal inhibitory concentration (IC50) (Table 1) was found to be 67 nM. Same read-out and setting: the value for `Cc1ccc2c(NC(=O)c3cn(C)cn3)cccc2c1Oc1ncccc1-c1ccnc(N[C@H]2CCCNC2)n1` [Example 176, (S)-1-Methyl-N-(6-methyl-5-((3-(2-(piperidin-3-ylamino)pyrimidin-4-yl)pyridin-2-yl)oxy)naphthalen-1-yl)-1H-imidazole-4-carboxamide] was 368 nM. For the compound `CCCS(=O)(=O)Nc1cccc2c(Oc3ncc(OC)cc3-c3ccnc(N[C@H]4CCCNC4)n3)c(C)ccc12` [Example 424, (S)—N-(5-((5-Methoxy-3-(2-(piperidin-3-ylamino)pyrimidin-4-yl)pyridin-2-yl)oxy)-6-methylnaphthalen-1-yl)propane-1-sulfonamide hydrochloride], where the note is “Table 2”, the half-maximal inhibitory concentration (IC50) was 392 nM. Consider `Cc1ccc2c(Oc3ncccc3-c3ccnc(N[C@H]4CCCNC4)n3)c(C)ccc2c1NS(=O)(=O)CCC(F)(F)F` [Example 318, (S)—N-(2,6-Dimethyl-5-((3-(2-(piperidin-3-ylamino)pyrimidin-4-yl)pyridin-2-yl)oxy)naphthalen-1-yl)-3,3,3-trifluoropropane-1-sulfonamide], for which the half-maximal inhibitory concentration (IC50) (Table 1) was 41.7 nM. The same measure, in the same setting: the result for `Cc1nc(CNc2cccc3c(Oc4ncccc4-c4ccnc(N[C@H]5CCCNC5)n4)c(C)ccc23)c(C)s1` [Example 294, (S)-4-(2-((5-(((2,5-Dimethylthiazol-4-yl)methyl)amino)-2-methylnaphthalen-1-yl)oxy)pyridin-3-yl)-N-(piperidin-3-yl)pyrimidin-2-amine] reads 241 nM.
